Tests used:
[1] = half-life in animal (dog) and in man; conditions: in vivo
[2] = system: hepatic glutatione-S-transferase; experiment: activity of hepatic glutathione-S-transferase
[3] = solubility in solvents and water; assay type: physicochemical
Method: According to the present invention there is provided a compound of formula (I) in which R1 is -OCH3 and R is CH3, which is a crystalline yellow compound, which decomposes upon heating to 170°C, is soluble (1 : 100) in methanol and (1 : 30) in dimethylformamide, but insoluble in water.

Trichomonas Vaginalis = assay type: in vivo, humans
Method: The clinical investigation involved 42 patients, aged from 22 to 55, affected by vaginitis induced by Trichomonas Vaginalis.
The diagnosis was determined through bacterioscopic, cultural and May-Grunwald Giemsa examinations, which were repeated 3 days after the end of the treatment. The 42 Patients were splitted into 6 groups of 7 patients each.

[4] = treated orally (1st, 2nd, 3rd, 4th groups)

SMILES | half-life [1] | activity of the hepatic glutatione-S-transferase [2] | solubility in water [3] | complete recovery (Trichomonas Vaginalis; 5th group, treated only locally) | Trichomonas vaqinalis disappeared, number of patients (Trichomonas Vaginalis; 5th group, treated only locally, 3 vaginal tablets of 200 mg per day for 5 days) | positive results (Trichomonas Vaginalis; 6th group, treated both orally and locally) | activity against Trichomoniasis (Trichomonas Vaginalis; 42 patients) | tolerance in patients (Trichomonas Vaginalis; human, in vivo, po) | complete success (Trichomonas Vaginalis; [4]) | complete success, number of patients (Trichomonas Vaginalis; [4])
Cc1ncc([N+](=O)[O-])n1CCO [metronidazole, 1-(2-hydroxyethyl)-2-methyl-5-nitro-imidazole] | 7.3 h | does not exert this action |  |  |  |  |  |  |  | 
COc1ccc(OC(=O)CCC(=O)Nc2nccc(C=Cc3ncc([N+](=O)[O-])n3C)n2)c(C(C)(C)C)c1 [p-methoxy-o-tert-butyl-phenol ester of 5-nitro-imidazolyl-2-ethenyl-(2-amino-pyrimidyl)-N-succinic acid] |  |  | insoluble | 85% | 6 out of 7 patients | 100% | highly active | well tolerated | 98% | 25 patiens out of 28
